Experimental data: US7312228B2, “Cytotoxic indeno and isoindoloisoquinolones” (Purdue Research Foundation, priority 2003, dated 2007)
Values joined by “and” are separate entries in the source; they are usually repeats but may differ in a detail not shown here. Equal values may be shown once. Read-outs that look alike come from different tables or passages of the source.

Experiments:
HOP-62 = test: NCI screen antiproliferative activity, lung HOP-62; type: cell-based; conditions: Homo sapiens, concentration corresponding to 50% growth inhibition, read-out: cytotoxicity (GI50) lung HOP-62
Description: (§1) Selected indenoisoquinolones described herein were examined for antiproliferative activity against the human cancer cell lines in the National Cancer Institute screen, in which the activity of each compound was evaluated with approximately 55 different cancer cell lines of diverse tumor origins.

HCT-116 = test: NCI screen antiproliferative activity, colon HCT-116; type: cell-based; conditions: Homo sapiens, concentration corresponding to 50% growth inhibition, read-out: cytotoxicity (GI50) colon HCT-116
Description: as §1

SF-539 = test: NCI screen antiproliferative activity, CNS SF-539; type: cell-based; conditions: Homo sapiens, concentration corresponding to 50% growth inhibition, read-out: cytotoxicity (GI50) CNS SF-539
Description: as §1

UACC-62 = test: NCI screen antiproliferative activity, melanoma UACC-62; type: cell-based; conditions: Homo sapiens, concentration corresponding to 50% growth inhibition, read-out: cytotoxicity (GI50) melanoma UACC-62
Description: as §1

OVCAR-3 = test: NCI screen antiproliferative activity, ovarian OVCAR-3; type: cell-based; conditions: Homo sapiens, concentration corresponding to 50% growth inhibition, read-out: cytotoxicity (GI50) ovarian OVCAR-3
Description: as §1

SN12C = test: NCI screen antiproliferative activity, renal SN12C; type: cell-based; conditions: Homo sapiens, concentration corresponding to 50% growth inhibition, read-out: cytotoxicity (GI50) renal SN12C
Description: as §1

DU-145 = test: NCI screen antiproliferative activity, prostate DU-145; type: cell-based; conditions: Homo sapiens, concentration corresponding to 50% growth inhibition, read-out: cytotoxicity (GI50) prostate DU-145
Description: as §1

MDA-MB-435 = test: NCI screen antiproliferative activity, breast MDA-MB-435; type: cell-based, human; conditions: concentration corresponding to 50% growth inhibition, read-out: cytotoxicity (GI50) breast MDA-MB-435
Description: as §1

human cancer cell lines = test: NCI screen mean graph midpoint over approximately 55 cancer cell lines; type: cell-based; conditions: for GI50: read-out: MGM (mean graph midpoint for growth inhibition); for cytotoxicity compared with other compounds: human cancer cell cultures
Description: Selected indenoisoquinolones described herein were examined for antiproliferative activity against the human cancer cell lines in the National Cancer Institute screen, in which the activity of each compound was evaluated with approximately 55 different cancer cell lines of diverse tumor origins. […] The relative activities of selected indenoisoquinolines described herein were obtained from the top 1-mediated DNA cleavage assay, and are also shown in Table 1. Compounds 2 and 7 are also included the Table 1.

Human recombinant top1 = target: T1, Human recombinant top1 (Homo sapiens, UniProt P11387); test: Top1-mediated DNA cleavage reactions; type: biochemical; parameters: key to Top 1 Cleavage: weak activity (+); activity similar to compound 2 (++); activity greater than compound 2 (+++); conditions: for Top 1 Cleavage: tested at concentrations ranging up to 10 μM, relative to compound 2
T1 construct: made in house
T1 sequence (P11387 1-765): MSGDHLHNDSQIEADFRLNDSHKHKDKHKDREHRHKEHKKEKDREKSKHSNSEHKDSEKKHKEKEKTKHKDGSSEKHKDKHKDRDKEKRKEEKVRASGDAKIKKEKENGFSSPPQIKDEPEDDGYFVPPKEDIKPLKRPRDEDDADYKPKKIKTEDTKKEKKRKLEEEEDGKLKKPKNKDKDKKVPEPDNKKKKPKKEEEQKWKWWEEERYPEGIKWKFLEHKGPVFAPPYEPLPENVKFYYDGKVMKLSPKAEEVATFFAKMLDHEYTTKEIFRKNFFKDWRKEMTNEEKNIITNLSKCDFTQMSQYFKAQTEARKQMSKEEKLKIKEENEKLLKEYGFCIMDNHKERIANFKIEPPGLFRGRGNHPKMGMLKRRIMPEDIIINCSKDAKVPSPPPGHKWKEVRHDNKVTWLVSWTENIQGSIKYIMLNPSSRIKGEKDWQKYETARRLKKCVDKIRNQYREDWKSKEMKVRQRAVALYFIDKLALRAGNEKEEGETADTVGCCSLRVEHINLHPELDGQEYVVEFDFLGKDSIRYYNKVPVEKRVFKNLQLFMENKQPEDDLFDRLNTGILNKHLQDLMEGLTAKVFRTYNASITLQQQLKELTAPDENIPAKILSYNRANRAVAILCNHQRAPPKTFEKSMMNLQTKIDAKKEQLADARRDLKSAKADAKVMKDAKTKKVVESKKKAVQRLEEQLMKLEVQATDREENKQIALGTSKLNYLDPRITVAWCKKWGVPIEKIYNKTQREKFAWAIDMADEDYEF
Description: Human recombinant top1 was purified from Baculovirus as described by Pourquier et al. in J. Biol. Chem. 274:8516-23 (1999), the disclosure of which is incorporated herein by reference. The 161 bp fragment from pBluescript SK(−) phagemid DNA (Stratagene, La Jolla, Calif.) was cleaved with the restriction endonuclease Pvu II and Hind III (New England Biolabs, Beverly, Mass.) in supplied NE buffer 2 (10 μL reactions) for 1 h at 37° C., and separated by electrophoresis in a 1% agarose gel made in 1×TBE buffer. The 161 bp fragment was eluted from the gel slice (centrilutor by Amicon) and concentrated in a centricon 50 centrifugal concentrator (Amicon, Beverly, Mass.). Approximately 200 ng of the fragment was 3′-end labeled at the Hind III site by fill-in reaction with [alpha-^32P]-dGTP and 0.5 mM dATP, dCTP, and dTTP, in React 2 buffer (50 mM Tris-HCl, pH 8.0, […], 50 mM NaCl) with 0.5 units of DNA polymerase I (Klenow fragment). Unincorporated ^32P-dGTP was removed using mini Quick Spin DNA columns (Roche, Indianapolis, Ind.), and the eluate containing the 3′-end-labeled 161 bp fragment was collected. Aliquots (approximately 50,000 dpm/reaction) were incubated with top1 at 22° C. for 30 min in the presence of the tested drug. Reactions were terminated by adding SDS (0.5% final concentration). The samples (10 μL) were mixed with 30 μL of loading buffer (80% formamide, 10 mM sodium hydroxide, 1 mM sodium EDTA, 0.1% xylene cyanol, and 0.1% bromophenol blue, pH 8.0). Aliquots were separated in denaturing gels (16% polyacrylamide, 7 M urea). Gels were dried and visualized by using a Phosphoimager and ImageQuant software (Molecular Dynamics, Sunnyvale, Calif.).

Compound: COc1cc2cc3n(c(=O)c2cc1OC)Cc1cc2ccccc2nc1-3 [compound 8, 8,9-Dimethoxy-12H-5,11a-diaza-dibenzo[b,h]fluoren-11-one]
- GI50 (HOP-62): > 100 µM
- GI50 (HCT-116): 57.3 µM
- GI50 (SF-539): > 100 µM
- GI50 (UACC-62): > 100 µM
- GI50 (OVCAR-3): > 100 µM
- GI50 (SN12C): > 100 µM
- GI50 (DU-145): > 100 µM
- GI50 (MDA-MB-435; Homo sapiens): > 100 µM
- GI50 (human cancer cell lines; Homo sapiens): 91.2 µM
- cytotoxicity compared with other compounds (human cancer cell lines): generally less cytotoxic than compound 2
- Top 1 Cleavage (Human recombinant top1): +

Compound: COc1cc2c3c(n(C)c(=O)c2cc1OC)-c1cc2c(cc1C3=CCCCI)OCO2 [compound 24, 11-(4′-Iodobutylidene)-5,6-dihydro-2,3-dimethoxy-6-methyl-8,9-methylenedioxy-5-oxo-11H-indeno[1,2-c]isoquinoline]
- GI50 (HOP-62): 27.6 µM
- GI50 (HCT-116): 0.56 µM
- GI50 (SF-539): 4.3 µM
- GI50 (UACC-62): 3.5 µM
- GI50 (OVCAR-3): 22.8 µM
- GI50 (SN12C): 8.8 µM
- GI50 (DU-145): 28.7 µM
- GI50 (MDA-MB-435; Homo sapiens): 5.2 µM
- GI50 (human cancer cell lines; Homo sapiens): 16.8 µM
- cytotoxicity compared with other compounds (human cancer cell lines): slightly more cytotoxic than compounds 18-20
- Top 1 Cleavage (Human recombinant top1): 0
- melting point: 173 to 174.5 °C

Compound: COc1cc2c3c(n(C)c(=O)c2cc1OC)-c1cc2c(cc1C3=CCCCCBr)OCO2 [compound 20, 11-(5′-Bromopentylidene)-5,6-dihydro-2,3-dimethoxy-6-methyl-8,9-methylenedioxy-5-oxo-11H-indeno[1,2-c]isoquinoline]
- GI50 (UACC-62): > 100 µM
- GI50 (OVCAR-3): > 100 µM
- GI50 (SN12C): > 100 µM
- GI50 (MDA-MB-435; Homo sapiens): > 100 µM
- GI50 (human cancer cell lines; Homo sapiens): 33.1 µM
- top1 inhibitory activity compared with other compounds (Human recombinant top1): higher inhibitory activity against top1 than the four-carbon alkenyl halides 19 and 24
- melting point: 196 to 197 °C

Compound: COc1cc2c3c(n(C)c(=O)c2cc1OC)-c1cc2c(cc1C3=CCCN)OCO2 [compound 26, 11-(3′-Aminopropylidene)-5,6-dihydro-2,3-dimethoxy-6-methyl-8,9-methylenedioxy-5-oxo-11H-indeno[1,2-c]isoquinoline]
- GI50 (HOP-62): 0.071 µM
- GI50 (HCT-116): 0.028 µM
- GI50 (SF-539): 0.42 µM
- GI50 (UACC-62): 0.2 µM
- GI50 (OVCAR-3): 0.56 µM
- GI50 (SN12C): 0.58 µM
- GI50 (DU-145): 0.37 µM
- GI50 (MDA-MB-435; Homo sapiens): 1.8 µM
- GI50 (human cancer cell lines; Homo sapiens): 0.34 µM
- top1 inhibitory activity compared with other compounds (Human recombinant top1): more potent as a top1 poison than compound 2
- Top 1 Cleavage (Human recombinant top1): +++
- melting point: > 180 °C (dec.)

Compound: COc1cc2c3c(n(C)c(=O)c2cc1OC)-c1cc2c(cc1C3=CCCCCl)OCO2 [compound 18, 11-(4′-Chlorobutylidene)-5,6-dihydro-2,3-dimethoxy-6-methyl-8,9-methylenedioxy-5-oxo-11H-indeno[1,2-c]isoquinoline]
- GI50 (SN12C): > 100 µM
- GI50 (MDA-MB-435; Homo sapiens): > 100 µM
- GI50 (human cancer cell lines; Homo sapiens): 33.1 µM
- Top 1 Cleavage (Human recombinant top1): +
- melting point: 196 to 201 °C

Compound: COc1cc2c3c(n(C)c(=O)c2cc1OC)-c1cc2c(cc1C3=O)OCO2 [compound 2, reference compound]
- GI50 (MDA-MB-435): 96 µM
- GI50 (human cancer cell lines; average GI50 of all approximately 55 cell lines, values outside 10^-8 to 10^-4 molar taken as the limits): 20.0 µM and 20 µM
- Top 1 Cleavage (Human recombinant top1): ++

Compound: O=c1c2ccccc2cc2n1Cc1cc3ccccc3nc1-2 [compound 13, 12H-5,11a-Diaza-dibenzo[b,h]fluoren-11-one]
- GI50 (HOP-62): 68.2 µM
- GI50 (HCT-116): 32.7 µM
- GI50 (SF-539): 66.7 µM
- GI50 (UACC-62): 97.2 µM
- GI50 (OVCAR-3): 39.8 µM
- GI50 (SN12C): > 100 µM
- GI50 (DU-145): > 100 µM
- GI50 (MDA-MB-435; Homo sapiens): 41.8 µM
- GI50 (human cancer cell lines; Homo sapiens): 58.9 µM
- cytotoxicity compared with other compounds (human cancer cell lines): generally less cytotoxic than compound 2
- pattern of top1-mediated DNA cleavage sites (Human recombinant top1): better resembled that of compound 2 than that of camptothecin
- Top 1 Cleavage (Human recombinant top1): ++

Compound: COc1cc2c3c(n(C)c(=O)c2cc1OC)-c1cc2c(cc1C3=CCCCCCBr)OCO2 [compound 21, 11-(6′-Bromohexylidene)-5,6-dihydro-2,3-dimethoxy-6-methyl-8,9-methylenedioxy-5-oxo-11H-indeno[1,2-c]isoquinoline]
- GI50 (human cancer cell lines; Homo sapiens): 7.8 µM
- cytotoxicity compared with other compounds (human cancer cell lines): slightly more cytotoxic than compounds 18-20
- top1 inhibitory activity compared with other compounds (Human recombinant top1): higher inhibitory activity against top1 than the four-carbon alkenyl halides 19 and 24
- Top 1 Cleavage (Human recombinant top1): +
- melting point: 182 to 185 °C

Compound: COc1cc2c3c(n(C)c(=O)c2cc1OC)-c1cc2c(cc1C3=CCCCBr)OCO2 [compound 19, 11-(4′-Bromobutylidene)-5,6-dihydro-2,3-dimethoxy-6-methyl-8,9-methylenedioxy-5-oxo-11H-indeno[1,2-c]isoquinoline]
- GI50 (HOP-62): 19.4 µM
- GI50 (HCT-116): 37.8 µM
- GI50 (SF-539): 30 µM
- GI50 (UACC-62): 11.4 µM
- GI50 (OVCAR-3): 58.1 µM
- GI50 (SN12C): > 100 µM
- GI50 (DU-145): 67.8 µM
- GI50 (MDA-MB-435; Homo sapiens): > 100 µM
- GI50 (human cancer cell lines; Homo sapiens): 27.8 µM
- Top 1 Cleavage (Human recombinant top1): 0
- melting point: 197 to 199 °C
